Test results from the NIST ThermoML archive (doi:10.1016/j.fluid.2011.09.011).
± gives the expanded uncertainty stated by the source.

Settings: 298.15 K; 101.33 kPa; Liquid; Vibrating tube method

| mass density | Structure (SMILES) |
| --- | --- |
| 1203.76 ± 7.9 kg/m3 | CCCCn1cc[n+](C)c1.F[B-](F)(F)F [1-butyl-3-methylimidazolium tetrafluoroborate] |
| 1236.55 ± 8.3 kg/m3 | CCOS(=O)(=O)[O-].CCn1cc[n+](C)c1 [1-ethyl-3-methylimidazolium ethyl sulfate] |
